According to patent US8105604B2, “WT1 modified peptide” (International Institute of Cancer Immunology, Inc., priority 2001, dated 2012):
Where two headings read alike, the source gives them in different places. Residues, ends and D or L forms follow the SMILES beside them. No end group written: not given here.

Legend:
[1] = target: T1, HLA-A*2402 (Homo sapiens, UniProt P04439, D101N/D140Y/D185E/E176V/E190D/F33S/G103R/G107R/I119L/I121M/I306V/K335N/L105A/L180Q/L300P/N151K/N90K/Q86E/Q94H/R106L/R138H/R89G/T104I/T345S/V100E/W191G/Y123F); test: Binding affinity to HLA-A*2402 on acid-treated C1RA2402 cells (flow cytometry)
Method: After washing the cells with the medium, they were suspended at a concentration of 2×10^6 cells/ml in DMEM medium containing 200 nM β2-microglobulin (Sigma) and 0.5% bovine serum albumin. 15 μl of the cell suspension were mixed with 50 μl of the medium comprising various concentrations of WT1 peptide followed by incubating for 4 hours at room temperature. After washing the cells, they were stained with monoclonal antibody to HLA-A24 labeled with FITC (clone name: 7A12), and the amount of HLA-A24 expressed was analyzed with a flow cytometer FACS system.

[2] = tested on: peripheral blood mononuclear cells from HLA-A*2402-positive donors; test: Stimulation of peripheral blood mononuclear cells with peptide; status of the resulting cells; type: cell-based, human
Method: Peripheral blood mononuclear cells were isolated from HLA-A*2402-positive donors and distributed among the wells of a 24-well plate at 2×10^6 cells/well followed by the addition of WT1 wild peptide or WT1 modified peptide to a concentration of 20 μM and culturing for 1 week. The medium used at this time consisted of 45% RPMI, 45% AIV, 10% FCS 1× non-essential amino acids and SM/PCG. Following the aforementioned culturing, the cells were adjusted to 2×10^6 cells/well and used as responder cells.
On the other hand, other peripheral blood mononuclear cells were similarly isolated from the same HLA-A*2402-positive donors and then peptide-pulsed by culturing for 4 days with one of the aforementioned peptides at 20 μM. After then irradiating at 30 Gy, the cells were adjusted to 4×10^6 cells/well and used as stimulator cells.
The responder cells and stimulator cells prepared in the manner described above were then mixed and then cultured for 1 week following the addition of IL-2 at 50 U/ml.

[3] = tested on: C1R2402 cells pulsed with WT1 wild peptide; test: Blocking assay using antibody (51Cr release); type: cell-based; details: FIG. 5; E:T 20:1, 4 hours; anti-HLA class I, anti-HLA class II, anti-CD8 antibody
From the text: The antibodies used consisted of anti-HLA class I antibody, anti-HLA class II antibody and anti-CD8 antibody.

[4] = tested on: leukemia cells from AML patients (WT1+/A*2402+); test: 51Cr release cell killing assay on leukemia cells endogenously expressing WT1 antigen; type: cell-based, human; details: FIG. 2, E:T 20:1, 4 hours, AML patient cells WT1+/-
Method: The cell killing activity of effector cells stimulated with WT1 wild peptide or WT1 modified peptide on leukemia cells that endogenously express WT1 antigen was tested according to the ^51Cr release method.

[5] = tested on: RERF-LCAI, LC1sq, 11-18 and LK87 lung cancer cells; test: 51Cr release cytotoxicity assay on lung cancer cell lines; type: cell-based; details: FIG. 4; E:T 20:1, 4 hours
Method: The cytotoxic activity of effector cells stimulated with WT1 wild peptide or WT1 modified peptide was tested on a cancer cell line associated with lung cancer that endogenously expresses WT1 antigen (target cells) using the ^51Cr release method.

[6] = tested on: C1R2402 cells; test: Killing assay (51Cr release) by peptide-stimulated effector cells on peptide-pulsed C1R2402 target cells; type: cell-based
From the text: FIG. 1 is a graph showing the cell killing effects (specific cytolytic activity) on C1R2402 target cells (T), either pulsed or not pulsed with peptide, by effecter cells (E) stimulated with WT1 wild peptide (Sequence ID No. 2) or the WT1 modified peptide of the present invention (Sequence ID No. 3). In the graph, the black circles indicate the cytolytic effect on C1R2402 target cells pulsed with wild peptide by effecter cells stimulated with WT1 modified peptide, the black squares indicate the cytolytic effect on […] target cells pulsed with wild peptide by effecter cells stimulated with WT1 wild peptide, the white circles indicate the cytolytic effect on C1R2402 target cells not pulsed with wild peptide by effecter cells stimulated with WT1 modified peptide, and the white squares indicate the cytolytic effect on C1R2402 target cells not pulsed with wild peptide by effecter cells stimulated with WT1 wild peptide.
FIG. 3 is a graph showing the cell killing effects (specific cytolytic activity) on C1R2402 target cells, either pulsed or not pulsed with peptide, by effecter cells stimulated with WT1 wild peptide or the WT1 modified peptide of the present invention. […]

[7] = target: T1, HLA-A*2402; details: reported in J. Immunol., 154, 5994, 1995; cited from earlier work
[8] = resulting cells after stimulation with 20 μM peptide and IL-2 50 U/ml

In the case of `CSCC[C@H](NC(=O)[C@H](CCC(N)=O)NC(=O)[C@H](CC(N)=O)NC(=O)[C@H](Cc1c[nH]c2ccccc12)NC(=O)[C@@H](NC(=O)[C@H](Cc1ccc(O)cc1)NC(=O)[C@@H](N)CS)[C@@H](C)O)C(=O)N[C@@H](CC(N)=O)C(=O)N[C@@H](CC(C)C)C(=O)O` [WT1 modified peptide, Cys Tyr Thr Trp Asn Gln Met Asn Leu] (H-CYTWNQMNL-OH; N-terminus and C-terminus assumed), the “binding affinity for HLA-A*2402 (comparison)” value [1] is reported as “stronger binding affinity for HLA-A*2402 than the WT1 wild peptide”, the Kd ([1]; calculated using pmel 15 antigen peptide as standard, 4 hours at room temperature, read-out: Dissociation constant Kd) is reported as 0.64 µM and the No. of cells ([2]; PBMC stimulated with 20 μM peptide, responder plus stimulator cells cultured 1 week with IL-2 50 U/ml) is reported as 3.0 × 10^6/well. For the same compound, the CD4 [2, 8] was 18%, the CD8 [2, 8] was 38% and the “blocking of cytotoxic activity of peptide-stimulated effector cells by antibodies” value [3] was “blocked by anti-HLA class I antibody and anti-CD8 antibody”. The “cytotoxic activity of peptide-stimulated effector cells on leukemia cells” value [4] was “the level of that activity was higher”, the “cytotoxic activity of peptide-stimulated effector cells on lung cancer cell lines” value [5] was “the level of that activity was higher” and the “cell killing activity (cell lysis) of peptide-stimulated effector cells” value ([6]; Example 1, FIG. 1, E:T ratio 1, 5, 20, C1R2402 target cells pulsed or not pulsed with peptide) was “more potent cell killing activity than cells stimulated with WT1 wild peptide”. The “cytotoxic activity of peptide-stimulated effector cells” value ([6]; Example 3, FIG. 3, effector cells from different healthy HLA-A*2402-positive donors) was “more potent cytotoxic activity than cells stimulated with WT1 wild peptide”.

For `CSCC[C@H](NC(=O)[C@H](CCC(N)=O)NC(=O)[C@H](CC(N)=O)NC(=O)[C@H](Cc1c[nH]c2ccccc12)NC(=O)[C@@H](NC(=O)[C@H](CCSC)NC(=O)[C@@H](N)CS)[C@@H](C)O)C(=O)N[C@@H](CC(N)=O)C(=O)N[C@@H](CC(C)C)C(=O)O` [WT1 wild peptide, Cys Met Thr Trp Asn Gln Met Asn Leu, reference compound] (H-CMTWNQMNL-OH), the Kd [1] was 18.2 µM, the “blocking of cytotoxic activity of peptide-stimulated effector cells by antibodies” value [3] was “blocked by anti-HLA class I antibody and anti-CD8 antibody” and the “cytotoxic activity of peptide-stimulated effector cells on leukemia cells” value [4] was “demonstrated cytotoxic activity on the WT1+/A*2402 cells”. For the same compound, the “cytotoxic activity of peptide-stimulated effector cells on lung cancer cell lines” value [5] was “demonstrated cytotoxic activity only on the WT1+/A*2402+ cells”.

For “AYGLDFYIL [melanoma antigen peptide used as standard for the Kd calculation]”, the “binding to HLA-A*2402” value [7] is listed as “reported to bind to HLA-A*2402”.
